How the values were obtained:
[1] = system: MCF7; experiment: Cytotoxicity against human MCF7 cells assessed as inhibition of cell viability at 30 uM after 48 hrs by SRB assay; format: functional; details: MCF7, 48 h
[2] = system: MCF7; experiment: Cytotoxicity against human MCF7 cells assessed as inhibition of cell viability after 48 hrs by SRB assay; format: functional, cell-based; details: MCF7, 48 h
[3] = system: HepG2; experiment: Cytotoxicity against human HepG2 cells assessed as inhibition of cell viability after 48 hrs by SRB assay; format: functional, cell-based; details: HepG2, 48 h
[4] = system: HT-29; experiment: Cytotoxicity against human HT-29 cells assessed as inhibition of cell viability after 48 hrs by SRB assay; format: functional, cell-based; details: HT-29, 48 h
[5] = Cytotoxicity against human PANC1 cells assessed as inhibition of cell viability after 48 hrs by SRB assay; format: functional, cell-based; details: PANC-1, 48 h
[6] = system: A549; experiment: Cytotoxicity against human A549 cells assessed as inhibition of cell viability after 48 hrs by SRB assay; format: functional, cell-based; details: A549, 48 h
[7] = system: HeLa; experiment: Cytotoxicity against human HeLa cells assessed as inhibition of cell viability after 48 hrs by SRB assay; format: functional, cell-based
[8] = system: SK-OV-3; experiment: Cytotoxicity against human SKOV3 cells assessed as inhibition of cell viability after 48 hrs by SRB assay; format: functional, cell-based; details: SK-OV-3, 48 h

SMILES	inhibition at 30 µM [1]	IC50 [2]	IC50 [3]	IC50 [4]	IC50 [5]	IC50 [6]	IC50 [7]	IC50 [8]
CCN(CC)CCNC(=O)c1c(C)[nH]c(/C=C2\C(=O)Nc3ncc(F)cc32)c1C	70.7%	> 30 µM	15 µM	6.27 µM	> 30 µM			
CCOC(=O)c1c(C)[nH]c(/C=C2\C(=O)Nc3ncc(F)cc32)c1C	60.4%							
Cc1[nH]c(/C=C2\C(=O)Nc3ncc(F)cc32)c(C)c1C(=O)O	20.5%							
Cc1[nH]c(/C=C2\C(=O)Nc3ncc(F)cc32)c(C)c1C(=O)NCCN(C)C	61.1%							
Cc1[nH]c(/C=C2\C(=O)Nc3ncc(F)cc32)c(C)c1C(=O)NCCN1CCOCC1	15.6%							
Cc1[nH]c(/C=C2\C(=O)Nc3ncc(F)cc32)c(C)c1C(=O)NCC1CCN(C)CC1	78%	> 30 µM	21.2 µM	5.72 µM	> 30 µM			
Cc1[nH]c(/C=C2\C(=O)Nc3ncc(F)cc32)c(C)c1C(=O)NCCN1CCCC1	37.5%							
Cc1[nH]c(/C=C2\C(=O)Nc3ncc(F)cc32)c(C)c1C(=O)NC1CC1	6.3%							
Cc1[nH]c(/C=C2\C(=O)Nc3ncc(F)cc32)c(C)c1C(=O)NCCOc1ccccc1	2.8%							
Cc1[nH]c(/C=C2\C(=O)Nc3ncc(F)cc32)c(C)c1C(=O)NCCOCc1ccccc1	4.1%							
Cc1[nH]c(/C=C2\C(=O)Nc3ncc(F)cc32)c(C)c1C(=O)NCC(C)O (configuration not stated)	0%							
CCOC(=O)c1c(C)[nH]c(/C=C2\C(=O)Nc3ncc(Cl)cc32)c1C	54.8%							
Cc1[nH]c(/C=C2\C(=O)Nc3ncc(Cl)cc32)c(C)c1C(=O)O	15.8%							
Cc1[nH]c(/C=C2\C(=O)Nc3ncc(Cl)cc32)c(C)c1C(=O)NCCN(C)C	45.7%							
CCN(CC)CCNC(=O)c1c(C)[nH]c(/C=C2\C(=O)Nc3ncc(Cl)cc32)c1C	88.9%	26.3 µM	12.4 µM	6.93 µM	14 µM	10.3 µM	29.4 µM	8.28 µM
Cc1[nH]c(/C=C2\C(=O)Nc3ncc(Cl)cc32)c(C)c1C(=O)NCCN1CCOCC1	6%							
Cc1[nH]c(/C=C2\C(=O)Nc3ncc(Cl)cc32)c(C)c1C(=O)NCC1CCN(C)CC1	88.4%	> 30 µM	12.7 µM	5.57 µM	> 30 µM	16.9 µM	> 30 µM	16.4 µM
Cc1[nH]c(/C=C2\C(=O)Nc3ncc(Cl)cc32)c(C)c1C(=O)NCCN1CCCC1	91.3%	15.6 µM	7.87 µM	12.5 µM	10.3 µM	11.4 µM	24.5 µM	16.1 µM
Cc1[nH]c(/C=C2\C(=O)Nc3ncc(Cl)cc32)c(C)c1C(=O)NC1CC1	6.2%							
CCOC(=O)c1c(C)[nH]c(/C=C2\C(=O)Nc3ncc(Br)cc32)c1C	6.3%							
Cc1[nH]c(/C=C2\C(=O)Nc3ncc(Br)cc32)c(C)c1C(=O)O	19.6%							
Cc1[nH]c(/C=C2\C(=O)Nc3ncc(Br)cc32)c(C)c1C(=O)NCCN(C)C	79.4%	14.1 µM	6.57 µM	5.04 µM	11.6 µM	4.57 µM	17.9 µM	4.98 µM
CCN(CC)CCNC(=O)c1c(C)[nH]c(/C=C2\C(=O)Nc3ncc(Br)cc32)c1C	89.7%	27.8 µM	12 µM	3.99 µM	15.6 µM	6.46 µM	26.7 µM	11.8 µM
Cc1[nH]c(/C=C2\C(=O)Nc3ncc(Br)cc32)c(C)c1C(=O)NCCN1CCOCC1	6%							
Cc1[nH]c(/C=C2\C(=O)Nc3ncc(Br)cc32)c(C)c1C(=O)NCC1CCN(C)CC1	82.8%	> 30 µM	21.8 µM	5.57 µM	26.9 µM	15.2 µM	> 30 µM	19.2 µM
Cc1[nH]c(/C=C2\C(=O)Nc3ncc(Br)cc32)c(C)c1C(=O)NCCN1CCCC1	86.9%	15.1 µM	9.36 µM	4.49 µM	6.2 µM	4.82 µM	15.4 µM	5.15 µM
Cc1[nH]c(/C=C2\C(=O)Nc3ncc(Br)cc32)c(C)c1C(=O)NC1CC1	5.5%							
CCN(CC)CCNC(=O)c1c(C)[nH]c(/C=C2\C(=O)Nc3ccc(F)cc32)c1C [SUNITINIB]	94%	25.4 µM	16.1 µM	4.7 µM	14.9 µM	7.93 µM	> 30 µM	9.21 µM

Source: ChEMBL document CHEMBL3596147, “Synthesis and antitumor activity of 5-(5-halogenated-2-oxo-1H-pyrrolo[2,3-b]pyridin-(3Z)-ylidenemethyl)-2,4-dimethyl-1H-pyrrole-3-carboxamides” (Bioorg Med Chem Lett, 2015)
